Source: the supplement of paper PMC13380429

What was measured:
Settings in all cases: 72 h
HepG2 [1] = assay: cell viability relative to DMSO; higher = less toxic
Calu-3 [2] = assay: as above
U2OS [3] = assay: as above
Vero E6 [4] = assay: as above
Caco-2 [5] = assay: as above
HepG2 [6] = assay: relative viability EC50 (midpoint between 100% and the lowest measured viability); higher = less toxic
Calu-3 [7] = assay: as above
U2OS [8] = assay: as above
Vero E6 [9] = assay: as above
Caco-2 [10] = assay: as above
HepG2 [11] = assay: drug sensitivity score (DSS) for viability; higher = more toxic; extreme values may be limits of the assay
Calu-3 [12] = assay: as above
U2OS [13] = assay: as above
Vero E6 [14] = assay: as above
Caco-2 [15] = assay: as above

Structure (SMILES) | cell viability (HepG2 [1]; 1 nM) [%] | cell viability (HepG2 [1]; 10 nM) [%] | cell viability (HepG2 [1]; 100 nM) [%] | cell viability (HepG2 [1]; 1000 nM) [%] | cell viability (HepG2 [1]; 10000 nM) [%] | cell viability (Calu-3 [2]; 1 nM) [%] | cell viability (Calu-3 [2]; 10 nM) [%] | cell viability (Calu-3 [2]; 100 nM) [%] | cell viability (Calu-3 [2]; 1000 nM) [%] | cell viability (Calu-3 [2]; 10000 nM) [%] | cell viability (U2OS [3]; 1 nM) [%] | cell viability (U2OS [3]; 10 nM) [%] | cell viability (U2OS [3]; 100 nM) [%] | cell viability (U2OS [3]; 1000 nM) [%] | cell viability (U2OS [3]; 10000 nM) [%] | cell viability (Vero E6 [4]; 1 nM) [%] | cell viability (Vero E6 [4]; 10 nM) [%] | cell viability (Vero E6 [4]; 100 nM) [%] | cell viability (Vero E6 [4]; 1000 nM) [%] | cell viability (Vero E6 [4]; 10000 nM) [%] | cell viability (Caco-2 [5]; 1 nM) [%] | cell viability (Caco-2 [5]; 10 nM) [%] | cell viability (Caco-2 [5]; 100 nM) [%] | cell viability (Caco-2 [5]; 1000 nM) [%] | cell viability (Caco-2 [5]; 10000 nM) [%] | relative viability EC50 (HepG2 [6]) [µM] | relative viability EC50 (Calu-3 [7]) [µM] | relative viability EC50 (U2OS [8]) [µM] | relative viability EC50 (Vero E6 [9]) [µM] | relative viability EC50 (Caco-2 [10]) [µM] | drug sensitivity score (HepG2 [11]) | drug sensitivity score (Calu-3 [12]) | drug sensitivity score (U2OS [13]) | drug sensitivity score (Vero E6 [14]) | drug sensitivity score (Caco-2 [15])
COc1cc(Oc2ccnc3cc(OC)c(OC)cc23)ccc1NC(=O)NC(C)c1nccs1 (stereo not drawn) | 93.1 | 104 | 91.7 | 98.8 | 87.9 | 94.5 | 98.7 | 91.6 | 113 | 97.3 | 95.1 | 98.8 | 93.8 | 95.6 | 90.1 | 100 | 101 | 91 | 96.2 | 95.6 | 100 | 104 | 87.7 | 97.2 | 88.2 | > 10 | > 10 | > 10 | > 10 | > 10 | 0 | 0 | 0 | 0 | 0
COc1cc2c(cc1OC)-c1cc3nc4ccccc4nc3n1C(C)(C)C2 | 98.7 | 83.6 | 89.7 | 95.1 | 76.2 | 104 | 103 | 99.8 | 95.2 | 97.3 |  |  |  |  |  | 108 | 102 | 104 | 92.2 | 107 | 97.9 | 103 | 106 | 99.1 | 89.1 | > 10 | > 10 |  | > 10 | > 10 | 1.8 | 0 |  | 0 | 0
